Data reported in patent US20220296534A1 (SOCIETE DES PRODUITS NESTLE S.A., priority 2019, published 2022).

Tests used:
human primary islets = assay: Glucose stimulated insulin secretion in human primary islets, insulin by ELISA; assay type: cell-based; conditions: 1 μM, FIG. 3
Procedure: The insulin concentration in the collected supernatants were measured by an ELISA kit according to the manufacturer recommendations and using a rat insulin antibody (Insulin rat high range ELISA Alpco Cat no 80-INSRTH-E10). Very briefly, rat monoclonal antibodies specific for insulin were immobilized to 96-well plates. Standards, samples and controls were added to the appropriate wells with a horseradish peroxidase enzyme-labeled monoclonal antibody (Conjugate). After incubation, the microplates were washed to remove unbound Conjugate and a TMB substrate solution was added to react with the bound Conjugate. Finally, after addition of a stop solution, the optical density was measured at 450 nm using a reference wavelength of 620 nm. The intensity of the yellow color is directly proportional to the amount of insulin within the samples. Human primary islets: Human islets from non-diabetic deceased male donors were purchased from Tebu-bio (Le-Perray-en-Yvelines, France). […] Insulin in supernatants was determined with specific ELISA kits, according to the manufacturer's instructions (Ultrasensitive Insulin ELISA, ALPCO Diagnostics, Salem, USA). […] Insulin was measured in the cell lysates using specific ELISA kits (Ultrasensitive Insulin ELISA, ALPCO Diagnostics) and normalised to DNA content.

INS-1 cells = assay: Glucose stimulated insulin secretion (GSIS) in INS-1 cells, insulin by ELISA; assay type: cell-based, rat; conditions: FIG. 2
Procedure: INS-1 cellular model: The β pancreatic INS-1 cells were selected for their insulin secretion profile in response to glucose and to other physiological or pharmacological insulin secretagogues such as sulfonylureas and GLP-1. The cells were cultured in complete medium, RPMI 1640 11 mM glucose supplemented with 1 mM sodium pyruvate, 50 μM 2-mercaptoethanol, 2 mM glutamine, 10 mM HEPES, 100 IU/mL penicillin, 100 μg/mL streptomycin and 10% heat-inactivated foetal calf serum (FCS), as described by Asfari et al. (Endocrinology 130: 167-178, 1992). For the insulin secretion assay, INS-1 cells were plated and cultured in 96-well poly ornithine coated plates. The day before insulin secretion test, the medium were removed and replaced by RPMI 5 mM glucose supplemented with FCS 1%. The day of the insulin secretion test, the cells were washed with Krebs-Ringer Bicarbonate HEPES buffer (KRBH; pH 7.4) 0.1% BSA and pre-incubated for 30 min at 37° C. in KRBH 0.1% BSA containing 2.8 mM glucose. The cells were then washed again with KRBH and incubated with the tested ingredients for 60 min in KRBH 0.1% BSA containing glucose (5 or 16 mM). The supernatants were collected and frozen before insulin determination. The insulin concentration in the collected supernatants were measured by an ELISA kit according to the manufacturer recommendations and using a rat insulin antibody (Insulin rat high range ELISA Alpco Cat no 80-INSRTH-E10). Very briefly, rat monoclonal antibodies specific for insulin were immobilized to 96-well plates. Standards, samples and controls were added to the appropriate wells with a horseradish peroxidase enzyme-labeled monoclonal antibody (Conjugate). After incubation, the microplates were washed to remove unbound Conjugate and a TMB substrate solution was added to react with the bound Conjugate. Finally, after addition of a stop solution, the optical density was measured at 450 nm using a reference wavelength of 620 nm. The intensity of the yellow color is directly proportional to the amount of insulin within the samples. […]

[1] = humans; cited from earlier work

SMILES: O[C@H]1[C@H](O)[C@@H](O)[C@H](O)[C@@H](O)[C@@H]1O [scyllo-inositol, (1r,2r,3r,4r,5r,6r)-Cyclohexane-1,2,3,4,5,6-hexol]
- effect on insulin secretion over the control condition (5 mM glucose) (human primary islets): synergistic effect
- glucose stimulated insulin secretion (GSIS), expressed as a percentage versus glucose (INS-1 cells; 20 μM scyllo-inositol): 120%
- glucose stimulated insulin secretion (GSIS), expressed as a percentage versus glucose (INS-1 cells; 2000 μM scyllo-inositol): 142%
- concentration at which GSIS reaches a plateau (INS-1 cells; doses from 20 to 2000 μM): 1000 to 2000 µM
- mean time to reach the maximum level after ingestion [1]: about 3.8 h
